Measurements taken from patent US6706509B2, “Oncoprotein protein kinase” (The Regents of the University of California, priority 1993, dated 2004).

Columns and labels:
JNK [1] = experiment: Solid-state phosphorylation assay of JNK in FR3T3, CV-1 and PC12 cells; type: cell-based; conditions: for JNK activity, effect of A23187 or CsA treatment: FR3T3, CV-1 and PC12 cells, A23187 1 μg/ml, CsA 100 ng/ml
Method: We examined whether elevated intracellular Ca^++ affects JNK activation in other cells. […] Cultures of FR3T3, CV-1, PC12 and mouse thymocytes were incubated for 15 minutes in the presence of TPA (50 ng/ml, T), A23817 (1 μg/ml, A) and/or CsA (100 ng/ml), as indicated. WCE prepared from 2-4×10^5 cells for the established cell lines and 1.5×10^6 cells for primary thymocytes were incubated with GSTcJun(1-223)-GSH agarose beads. After washing, JNK activity was determined by solid-state phosphorylation assay as described above.

MEK = MEK assay with kinase-defective ERK1 substrate, Jurkat cells and mouse thymocytes; type: cell-based, human; mouse
Method: (§1) JNK is a proline-directed protein kinase activated by extracellular stimuli (Hibi, et al., supra, 1993). In that respect, it resembles the ERK1 and 2 MAP kinases (Boulton, et al., Cell, 65:663-675, 1991). Since ERK1 and 2 appear to be involved in induction of c-fos (Gille, et al., Nature, 358:414-417, 1992; Marais, et al., Cell, 73:381-393, 1993) and could thereby participate in T cell activation, their regulation was examined. ERK1 and ERK2 activities were measured in both Jurkat and mouse thymocytes using an immunecomplex kinase assay and myelin basic protein (MBP) as a substrate. Recombinant, kinase-defective ERK1 was also used a substrate for assaying MEK, the protein kinase responsible for activation of ERK1 and 2 (Crews, et al., Science, 258:478-480, 1992).
(§2) WCE (5 μg) of Jurkat (FIG. 15, panel A) or mouse thymocytes (panel C) were incubated with 1 μg of kinase-defective ERK1 in kinase buffer containing γ-^32P-ATP for 20 minutes. The phosphorylated proteins were separated by SDS-PAGE and the band corresponding to the mutant ERK1 is indicated. WCE (20 μg) of Jurkat (panel B) or mouse thymocytes (panel C) that were treated as described above were immunoprecipitated with anti-ERK antibodies (a gift from Dr. M. Weber). The immune complexes were washed and incubated in kinase buffer containing γ-^32P-ATP and 2 μg MBP for 15 minutes at 30° C. The phosphorylated proteins were separated by SDS-PAGE. The band corresponding to phosphorylated MBP is indicated.

JNK [2] = experiment: Solid-state phosphorylation assay of JNK on GSTcJun(1-223)-GSH agarose beads, Jurkat cells; type: cell-based, human; conditions: for JNK activation, solid-state assay, agent alone: TPA 50 ng/ml or A23187 1 μg/ml, 15 minutes; for JNK activation together with suboptimal dose of TPA: A23187, anti-CD3 or anti-CD28 plus suboptimal TPA
Method: (§3) Exponentially growing cells were stimulated for the indicated times and hypotonic detergent cellular extracts were prepared as described (Hibi, et al., Genes and Dev., supra, 1993). The solid-state phosphorylation assay for measuring JNK activity was performed by incubated extracts with GSTcJun(1-223)-GSH agarose beads as described (Hibi, et al., supra., 1993) and as in Example 2. ERK1 and 2 activity was assayed by an immunecomplex kinase assay using MBP as a substrate (Minden, et al., Nature, 1993).
JNK can be retained on GSTcJun-glutathione (GSH) agarose affinity resin and its kinase activity measured by phosphorylation of GSTcJun. WCE (50 μg) of Jurkat cells treated as described above were incubated with 5 μl of GSH agarose beads coated with 10 μg GST-cJun (1-223) for 12 hours at 4° C. After extensive washing, the beads were incubated in kinase buffer containing γ-^32P-ATP for 20 minutes at 30° C., after which the proteins were dissociated by incubation in SDS sample buffer and separated by SDS-PAGE (FIG. 13B). The 49 kD band corresponds to GST-cJun (1-223). The faster migrating bands are degradation products (Hibi, et al., supra, 1993).
WCE (50 μg) of Jurkat cells treated as described above were incubated with GSTcJun(1-223)-GSH agarose beads and assayed for JNK activity using the solid-state kinase assay. The same WCE (20 μg) were immunoprecipitated with anti-ERK2 antibodies and assayed for MBP-kinase activity.
WCE (50 μg) of Jurkat cells treated as described in Panel A with various stimuli alone or their combinations were incubated with GSTcJun(1-223)-GSH agarose beads and assayed for JNK activity using solid-state kinase assay. The same samples (20 μg) were also assayed for MBP-kinase activity as described in FIG. 16B.

ERK1 and ERK2 = ERK1 and ERK2 immunecomplex kinase assay with MBP substrate, Jurkat cells and mouse thymocytes; type: cell-based, human; mouse
Method: as §3, §1, §2

[3] = Jurkat cells or mouse thymocytes

| Molecule | JNK activity, effect of A23187 or CsA treatment (JNK [1]) | MEK activity, effect of A23187 or CsA (MEK) | ERK activity, effect of A23187 or CsA (ERK1 and ERK2) | JNK activation, solid-state assay, agent alone (JNK [2]; Jurkat) | JNK activation together with suboptimal dose of TPA (JNK [2]; Jurkat) | also measured |
| --- | --- | --- | --- | --- | --- | --- |
| cyclosporin A [CsA] | In none of these cells was JNK activity affected | had no effect on either activity | had no effect on either activity |  |  | JNK activation, solid-state assay, CsA added to TPA+A23187 (JNK [2]; CsA 100 ng/ml): inhibited; JNK activation by suboptimal TPA+A23187, effect of CsA (JNK [2]; Jurkat): completely inhibited; JNK activation by anti-CD3+anti-CD28, effect of CsA (JNK [2]; Jurkat, CsA 100 ng/ml): partially attenuated this effect |
| CCCCCCCCCCCCCC(=O)O[C@@H]1[C@@H](C)[C@@]2(O)[C@@H](C=C(CO)C[C@]3(O)C(=O)C(C)=C[C@@H]23)[C@H]2C(C)(C)[C@]12OC(C)=O [TPA] |  |  |  | activation of JNK |  | JNK activity, TPA alone (JNK [1]; CV1 and FR3T3 cells, TPA 50 ng/ml, 15 minutes): weakly stimulated; MEK activity, TPA treatment (MEK; [3]): fully stimulated; JNK activation, suboptimal dose of TPA by itself (JNK [2]; Jurkat): does not lead to JNK activation; ERK activity, TPA treatment (ERK1 and ERK2; [3]): fully stimulated |
| anti-CD3: anti-CD3 monoclonal antibody OKT3 |  |  |  |  | strong synergistic activation of JNK | JNK activation, combined treatment with A23187 (JNK [2]; Jurkat, anti-CD3 or anti-CD28 plus A23187): efficiently activated |
| CNc1ccc2oc(C[C@H]3O[C@@]4(CC[C@H]3C)O[C@H]([C@H](C)C(=O)c3ccc[nH]3)[C@H](C)C[C@H]4C)nc2c1C(=O)O [A23187] | In none of these cells was JNK activity affected | had no effect on either activity | had no effect on either activity | had no effect | strong synergistic activation of JNK | JNK activation, solid-state assay, costimulation with TPA (JNK [2]; A23187 1 μg/ml plus TPA 50 ng/ml): strongly potentiated |
